Among the data in US11427548B2 (Arvinas Operations, Inc., priority 2015, dated 2022) are DC50 and Dmax values, retold here.

Like-named read-outs stand apart in the source and are kept apart here. Bounds are passed on as bounds.

The target of the assay is T1, Androgen Receptor (Homo sapiens, UniProt P10275).
T1 construct: endogenous in cells; host or cells: VCaP cells
T1 sequence (P10275 1-920): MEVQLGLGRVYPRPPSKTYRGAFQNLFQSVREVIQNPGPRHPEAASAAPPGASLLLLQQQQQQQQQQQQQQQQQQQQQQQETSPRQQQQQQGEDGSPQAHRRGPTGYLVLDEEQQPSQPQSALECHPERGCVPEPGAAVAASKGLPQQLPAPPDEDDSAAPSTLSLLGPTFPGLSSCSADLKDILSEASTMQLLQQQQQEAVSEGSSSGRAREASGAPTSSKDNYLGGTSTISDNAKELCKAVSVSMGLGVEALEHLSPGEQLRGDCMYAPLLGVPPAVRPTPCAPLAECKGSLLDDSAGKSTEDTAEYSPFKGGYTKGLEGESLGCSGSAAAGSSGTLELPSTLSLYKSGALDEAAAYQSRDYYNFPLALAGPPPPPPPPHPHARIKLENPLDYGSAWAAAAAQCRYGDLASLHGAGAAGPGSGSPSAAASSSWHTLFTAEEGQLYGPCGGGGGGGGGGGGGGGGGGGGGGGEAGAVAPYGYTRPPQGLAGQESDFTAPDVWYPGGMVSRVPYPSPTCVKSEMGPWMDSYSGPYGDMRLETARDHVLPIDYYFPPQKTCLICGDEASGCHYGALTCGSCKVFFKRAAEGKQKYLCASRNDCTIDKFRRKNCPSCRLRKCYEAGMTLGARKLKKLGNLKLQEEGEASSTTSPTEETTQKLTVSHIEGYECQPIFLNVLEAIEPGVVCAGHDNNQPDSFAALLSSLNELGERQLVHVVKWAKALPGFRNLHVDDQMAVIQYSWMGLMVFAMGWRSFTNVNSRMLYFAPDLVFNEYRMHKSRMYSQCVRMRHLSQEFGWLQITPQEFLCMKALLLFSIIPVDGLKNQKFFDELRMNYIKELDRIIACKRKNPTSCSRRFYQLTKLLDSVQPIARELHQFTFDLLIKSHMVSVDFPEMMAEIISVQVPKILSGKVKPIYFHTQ
As to the kind of experiment: Androgen Receptor ELISA assay (PathScan AR ELISA) in VCaP cells: AR degradation, Dmax and DC50. The format is cell-based. The gist of the method: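 VCaP cells, 30,000/well, grown ≥3 days in phenol red-free RPMI with 5% charcoal-stripped FBS; compound added in 0.1% DMSO with 0.1 nM R1881, 7 half-log doses, 24 h. Lysate AR quantified by PathScan sandwich ELISA, HRP/TMB read at 450 nm, giving DC50 and Dmax.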
(An ELISA detects its analyte on a solid surface through an enzyme-linked reagent.)

The mark [1] stands for this setting: VCaP cells; Table 36; read-out: VCaP DC50.
Setting [2] is: VCaP, VCaP cells; Table 36; read-out: VCaP Dmax (%).

For the molecule `CC(C)C[C@H](OCCN1CCN(c2ccc(C(=O)N[C@H]3C(C)(C)[C@H](Oc4ccc(C#N)c(Cl)c4)C3(C)C)cn2)CC1)C(=O)N[C@H](C(=O)N1C[C@H](O)C[C@H]1C(=O)NCc1ccc(Cl)cc1)C(C)C` [Example 726, N-((1r,3r)-3-(3-chloro-4-cyanophenoxy)-2,2,4,4-tetramethylcyclobutyl)-6-(4-(2-(((S)-1-(((S)-1-((2S,4R)-2-((4-chlorobenzyl)carbamoyl)-4-hydroxypyrrolidin-1-yl)-3-methyl-1-oxobutan-2-yl)amino)-4-methyl-1-oxopentan-2-yl)oxy)ethyl)piperazin-1-yl)nicotinamide], the DC50 (usually the concentration at which degradation of the target reaches its halfway point) under setting [1] is more than 501 nM. The greatest degradation seen (Dmax) (commonly the greatest extent of degradation seen) under setting [2] is less than 25%.
The like results for `CC(C)C[C@H](OCCN1CCN(c2ccc(C(=O)N[C@H]3C(C)(C)[C@H](Oc4ccc(C#N)c(Cl)c4)C3(C)C)cn2)CC1)C(=O)N[C@H](C(=O)N1C[C@H](O)C[C@H]1C(=O)NCc1ccc(Cl)cc1)C(C)(C)C` [Example 727, N-((1r,3r)-3-(3-chloro-4-cyanophenoxy)-2,2,4,4-tetramethylcyclobutyl)-6-(4-(2-(((S)-1-(((S)-1-((2S,4R)-2-((4-chlorobenzyl)carbamoyl)-4-hydroxypyrrolidin-1-yl)-3,3-dimethyl-1-oxobutan-2-yl)amino)-4-methyl-1-oxopentan-2-yl)oxy)ethyl)piperazin-1-yl)nicotinamide] were, in that order, more than 501 nM and less than 25%.
With `Cc1ncsc1-c1ccc([C@H](C)NC(=O)[C@@H]2C[C@@H](O)CN2C(=O)[C@@H](NC(=O)OC(C)(C)C)[C@@H](C)OCCCN(C)CCc2ccc(C(=O)N[C@H]3C(C)(C)[C@H](Oc4ccc(C#N)c(Cl)c4)C3(C)C)cc2)cc1` [Example 729, tert-butyl ((2S,3R)-3-(3-((4-(((1r,3r)-3-(3-chloro-4-cyanophenoxy)-2,2,4,4-tetramethylcyclobutyl)carbamoyl)phenethyl)(meth-yl)amino)propoxy)-1-((2S,4R)-4-hydroxy-2-(((S)-1-(4-(4-methylthiazol-5-yl)phenyl)ethyl)carbam-oyl)pyrrolidin-1-yl)-1-oxobutan-2-yl)carbamate], the DC50 under setting [1] is more than 501 nM. In addition, the Dmax under setting [2] was less than 25%.
The like results for `Cc1ncsc1-c1ccc(C(C)NC(=O)[C@@H]2C[C@@H](O)CN2C(=O)[C@@H](N)[C@@H](C)OCCCN(C)CCc2ccc(C(=O)N[C@H]3C(C)(C)[C@H](Oc4ccc(C#N)c(Cl)c4)C3(C)C)cc2)cc1` (stereo partly drawn) [Example 730, (2S,4R)-1-(O-(3-((4-(((1r,3r)-3-(3-chloro-4-cyanophenoxy)-2,2,4,4-tetramethylcyclobutyl)carbamoyl)phenethyl)(meth-yl)amino)propyl)-L-threonyl)-4-hydroxy-N-((S)-1-(4-(4-methylthiazol-5-yl)phenyl)ethyl)pyrrolidine-2-carboxamide] were, in that order, more than 501 nM and less than 25%.
As to `CC(C)[C@H](OCCN1CCN(c2ccc(C(=O)N[C@H]3C(C)(C)[C@H](Oc4ccc(C#N)c(Cl)c4)C3(C)C)cn2)CC1)C(=O)N[C@@H](C)C(=O)N1C[C@H](O)C[C@H]1C(=O)NCc1ccc(Cl)cc1` [Example 731, N-((1r,3r)-3-(3-chloro-4-cyanophenoxy)-2,2,4,4-tetramethylcyclobutyl)-6-(4-(2-(((S)-1-(((S)-1-((2S,4R)-2-((4-chlorobenzyl)carbamoyl)-4-hydroxypyrrolidin-1-yl)-1-oxopropan-2-yl)amino)-3-methyl-1-oxobutan-2-yl)oxy)ethyl)piperazin-1-yl)nicotinamide], under setting [1], the DC50 was more than 501 nM. Under setting [2], the Dmax is less than 25%.
Consider `Cc1ncsc1-c1ccc(CNC(=O)[C@@H]2C[C@@H](O)CN2C(=O)[C@H](C(C)C)N2Cc3ccccc3C2=O)c(OCCN2CCN(c3ccc(C(=O)N[C@H]4C(C)(C)[C@H](Oc5ccc(C#N)c(Cl)c5)C4(C)C)cn3)CC2)c1` [Example 732, N-((1r,3r)-3-(3-chloro-4-cyanophenoxy)-2,2,4,4-tetramethylcyclobutyl)-6-(4-(2-(2-(((2S,4R)-4-hydroxy-1-((S)-3-methyl-2-(1-oxoisoindolin-2-yl)butanoyl)pyrrolidine-2-carboxamido)methyl)-5-(4-methylthiazol-5-yl)phenoxy)ethyl)piper-azin-1-yl)nicotinamide], for which the DC50 under setting [1] was less than 50 nM. In addition, under setting [2], the Dmax was more than 71%.
The like results for `Cc1ncsc1-c1ccc(CNC(=O)[C@@H]2C[C@@H](O)CN2C(=O)[C@H](C(C)C)N2Cc3ccccc3C2=O)c(OCCN2CCN(c3ccc(C(=O)N[C@H]4C(C)(C)[C@H](Oc5ccc(C#N)c(C(F)(F)F)c5)C4(C)C)cn3)CC2)c1` [Example 733, N-((1r,3r)-3-(4-cyano-3-(trifluoromethyl)phenoxy)-2,2,4,4-tetramethylcyclobutyl)-6-(4-(2-(2-(((2S,4R)-4-hydroxy-1-((S)-3-methyl-2-(1-oxoisoindolin-2-yl)butanoyl)pyrrolidine-2-carboxamido)methyl)-5-(4-methylthiazol-5-yl)phenoxy)ethyl)piper-azin-1-yl)nicotinamide] were, in that order, less than 50 nM and more than 71%.
`CC(=O)N[C@H](C(=O)N1C[C@H](O)C[C@H]1C(=O)N[C@@H](C)c1ccc(-c2scnc2C)cc1)[C@@H](C)OCCCN(C)CCc1ccc(C(=O)N[C@H]2C(C)(C)[C@H](Oc3ccc(C#N)c(Cl)c3)C2(C)C)cc1` [Example 734, (2S,4R)-1-(N-acetyl-O-(3-((4-(((1r,3r)-3-(3-chloro-4-cyanophenoxy)-2,2,4,4-tetramethylcyclobutyl)carbamoyl)phenethyl)(meth-yl)amino)propyl)-L-threonyl)-4-hydroxy-N-((S)-1-(4-(4-methylthiazol-5-yl)phenyl)ethyl)pyrrolidine-2-carboxamide]: under setting [1], the DC50 was more than 501 nM. The Dmax under setting [2] was less than 25%.
On to `Cc1cc(C(C(=O)N2C[C@H](O)C[C@H]2C(=O)NCc2ccc(Cl)cc2OCCOCCOCCOc2ccc(N3C(=S)N(c4ccc(C#N)c(C(F)(F)F)c4)C(=O)C3(C)C)cc2)C(C)C)on1` (stereo partly drawn) [Example 735, (2S,4R)-N-(4-chloro-2-(2-(2-(2-(4-(3-(4-cyano-3-(trifluoromethyl)phenyl)-5,5-dimethyl-4-oxo-2-thioxoimidazolidin-1-yl)phenoxy)ethoxy)eth-oxy)ethoxy)benzyl)-4-hydroxy-1-(3-methyl-2-(3-methylisoxazol-5-yl)butanoyl)pyrrolidine-2-carboxamide], for which the Dmax (VCaP, read-out: VCaP Dmax (%)) was less than 25%. In addition, the DC50 (read-out: VCaP DC50; VCaP cells; Table 36) was more than 501 nM.
For `CC(C)(C)[C@H](NC(=O)COCCN1CCN(c2ccc(C(=O)N[C@H]3C(C)(C)[C@H](Oc4ccc(C#N)c(Cl)c4)C3(C)C)cn2)CC1)C(=O)N1C[C@H](O)C[C@H]1C(=O)NCc1ccc(C#N)cc1` [Example 736, N-((1r,3r)-3-(3-chloro-4-cyanophenoxy)-2,2,4,4-tetramethylcyclobutyl)-6-(4-(2-(2-(((S)-1-((2S,4R)-2-((4-cyanobenzyl)carbamoyl)-4-hydroxypyrrolidin-1-yl)-3,3-dimethyl-1-oxobutan-2-yl)amino)-2-oxoethoxy)ethyl)pipera-zin-1-yl)nicotinamide], the DC50 under setting [1] was less than 50 nM. The Dmax under setting [2] fell in the range of 51 to 70%.
